Legend:
Type in all cases: in vitro ADME
human BCRP = biological target: T1, human BCRP (Homo sapiens, UniProt Q9UNQ0); test: Transporter substrate assay, MDCKII‐BCRP monolayer bidirectional transport; conditions: BCRP ML; for Maximum net ER: maximum seen at 2.5 µM, n = 3
T1 sequence (Q9UNQ0 1-655): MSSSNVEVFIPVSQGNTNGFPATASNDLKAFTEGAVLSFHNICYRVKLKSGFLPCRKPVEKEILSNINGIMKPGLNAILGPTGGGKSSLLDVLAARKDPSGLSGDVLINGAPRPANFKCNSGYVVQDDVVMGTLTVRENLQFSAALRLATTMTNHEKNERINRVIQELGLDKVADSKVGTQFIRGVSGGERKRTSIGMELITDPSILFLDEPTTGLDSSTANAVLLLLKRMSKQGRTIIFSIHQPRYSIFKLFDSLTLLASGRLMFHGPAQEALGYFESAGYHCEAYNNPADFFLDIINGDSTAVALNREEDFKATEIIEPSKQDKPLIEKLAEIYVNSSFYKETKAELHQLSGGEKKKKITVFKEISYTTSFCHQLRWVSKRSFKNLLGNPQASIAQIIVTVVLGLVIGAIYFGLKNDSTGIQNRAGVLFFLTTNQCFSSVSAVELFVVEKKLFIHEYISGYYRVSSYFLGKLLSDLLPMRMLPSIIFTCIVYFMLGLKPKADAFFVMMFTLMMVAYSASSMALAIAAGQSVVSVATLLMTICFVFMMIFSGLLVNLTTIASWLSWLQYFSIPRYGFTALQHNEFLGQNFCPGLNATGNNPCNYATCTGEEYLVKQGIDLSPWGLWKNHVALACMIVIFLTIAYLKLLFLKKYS

human MATE2‐K = human MATE2‐K (Homo sapiens, UniProt Q86VL8); test: Uptake transporter substrate assay; conditions: MATE2‐K UPT; for Maximum fold accumulation over control: maximum seen at 2.5 µM and 20 min, n = 3
human OAT1 = biological target: T2, human OAT1 (Homo sapiens, UniProt Q4U2R8); test: Uptake transporter substrate assay; conditions: OAT1 UPT; for Maximum fold accumulation over control: maximum seen at 2.5 µM and 20 min, n = 3
T2 sequence (Q4U2R8 1-563): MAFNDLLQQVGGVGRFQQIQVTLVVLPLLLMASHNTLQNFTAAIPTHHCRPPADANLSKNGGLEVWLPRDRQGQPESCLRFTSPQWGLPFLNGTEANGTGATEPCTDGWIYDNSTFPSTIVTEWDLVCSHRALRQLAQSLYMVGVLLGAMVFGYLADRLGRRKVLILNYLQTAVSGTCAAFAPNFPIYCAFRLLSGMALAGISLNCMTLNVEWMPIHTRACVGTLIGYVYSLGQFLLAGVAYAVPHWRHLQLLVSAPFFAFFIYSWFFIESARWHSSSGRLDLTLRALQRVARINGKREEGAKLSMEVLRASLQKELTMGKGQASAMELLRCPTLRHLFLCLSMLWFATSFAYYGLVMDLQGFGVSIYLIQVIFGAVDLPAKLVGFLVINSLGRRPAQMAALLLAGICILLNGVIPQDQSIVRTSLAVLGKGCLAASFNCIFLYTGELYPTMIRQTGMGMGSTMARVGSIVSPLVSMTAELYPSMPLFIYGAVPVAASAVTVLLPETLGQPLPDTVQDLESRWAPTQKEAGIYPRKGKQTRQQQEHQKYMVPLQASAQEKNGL

human OATP1B3 = biological target: T3, human OATP1B3 (Homo sapiens, UniProt Q9NPD5); test: Uptake transporter substrate assay; conditions: OATP1B3 UPT; for Maximum fold accumulation over control: maximum seen at 1 µM and 20 min, n = 3
T3 sequence (Q9NPD5 1-702): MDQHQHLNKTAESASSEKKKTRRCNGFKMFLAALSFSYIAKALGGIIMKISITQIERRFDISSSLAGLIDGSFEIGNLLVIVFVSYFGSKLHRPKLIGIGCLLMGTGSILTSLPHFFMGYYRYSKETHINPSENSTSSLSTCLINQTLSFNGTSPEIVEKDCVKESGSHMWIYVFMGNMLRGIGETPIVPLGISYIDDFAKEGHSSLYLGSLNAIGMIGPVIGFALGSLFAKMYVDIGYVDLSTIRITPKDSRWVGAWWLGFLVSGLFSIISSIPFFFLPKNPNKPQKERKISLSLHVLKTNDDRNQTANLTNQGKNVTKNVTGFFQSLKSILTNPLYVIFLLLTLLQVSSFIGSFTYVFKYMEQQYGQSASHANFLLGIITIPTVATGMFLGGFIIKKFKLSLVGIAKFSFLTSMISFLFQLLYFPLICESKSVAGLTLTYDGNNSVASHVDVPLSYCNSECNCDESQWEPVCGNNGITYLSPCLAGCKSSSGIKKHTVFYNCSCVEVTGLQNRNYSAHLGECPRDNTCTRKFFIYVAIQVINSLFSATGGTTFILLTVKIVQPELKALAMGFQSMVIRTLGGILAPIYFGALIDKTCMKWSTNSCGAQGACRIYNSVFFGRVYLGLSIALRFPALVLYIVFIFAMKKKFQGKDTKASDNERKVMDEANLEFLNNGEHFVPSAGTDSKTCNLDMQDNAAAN

human OCT2 = biological target: T4, human OCT2 (Homo sapiens, UniProt O15244); test: Uptake transporter substrate assay; conditions: OCT2 UPT; for Maximum fold accumulation over control: maximum seen at 1 µM and 20 min, n = 3
T4 sequence (O15244 1-555): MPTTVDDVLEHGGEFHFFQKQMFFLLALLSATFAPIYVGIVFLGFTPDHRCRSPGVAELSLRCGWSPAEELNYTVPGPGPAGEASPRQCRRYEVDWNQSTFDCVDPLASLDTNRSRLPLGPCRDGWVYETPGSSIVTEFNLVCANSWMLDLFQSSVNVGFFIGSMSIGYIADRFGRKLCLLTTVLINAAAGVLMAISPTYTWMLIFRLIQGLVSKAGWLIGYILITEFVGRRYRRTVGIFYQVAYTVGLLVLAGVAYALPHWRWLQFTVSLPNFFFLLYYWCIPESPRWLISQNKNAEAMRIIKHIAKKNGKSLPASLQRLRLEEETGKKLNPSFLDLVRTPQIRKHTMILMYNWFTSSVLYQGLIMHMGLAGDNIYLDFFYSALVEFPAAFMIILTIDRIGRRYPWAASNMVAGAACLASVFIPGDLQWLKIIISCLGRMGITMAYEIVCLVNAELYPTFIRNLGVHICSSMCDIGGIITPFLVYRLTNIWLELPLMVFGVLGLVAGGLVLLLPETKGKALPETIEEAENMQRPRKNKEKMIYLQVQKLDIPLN

[1] = listed as 6β‐hydroxy‐21‐desacetyl deflazacort

Chain of human MATE2‐K (Q86VL8 1-566 isoform Q86VL8-3): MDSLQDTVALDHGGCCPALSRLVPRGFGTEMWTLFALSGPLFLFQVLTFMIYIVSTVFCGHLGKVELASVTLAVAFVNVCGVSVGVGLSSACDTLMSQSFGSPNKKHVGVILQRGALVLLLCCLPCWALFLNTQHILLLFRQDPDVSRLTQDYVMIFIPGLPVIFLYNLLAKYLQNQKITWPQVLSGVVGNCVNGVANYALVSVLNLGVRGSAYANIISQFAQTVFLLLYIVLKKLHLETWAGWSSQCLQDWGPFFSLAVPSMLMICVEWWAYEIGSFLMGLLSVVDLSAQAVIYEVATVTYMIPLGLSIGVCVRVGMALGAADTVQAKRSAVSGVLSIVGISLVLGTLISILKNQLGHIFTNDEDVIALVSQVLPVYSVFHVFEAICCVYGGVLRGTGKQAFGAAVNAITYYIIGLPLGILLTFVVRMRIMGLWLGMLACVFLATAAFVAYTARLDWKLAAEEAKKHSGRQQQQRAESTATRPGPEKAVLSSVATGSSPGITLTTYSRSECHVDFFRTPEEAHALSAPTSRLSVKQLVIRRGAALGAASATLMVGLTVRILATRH

Row | Compound | Maximum net ER (human BCRP) | Maximum fold accumulation over control (human MATE2‐K) | Maximum fold accumulation over control (human OAT1) | Maximum fold accumulation over control (human OATP1B3) | Maximum fold accumulation over control (human OCT2) | Substrate potential (human BCRP) | Substrate potential (human BCRP; [1]) | Substrate potential (human MATE2‐K) | Substrate potential (human MATE2‐K; [1]) | Substrate potential (human OAT1) | Substrate potential (human OAT1; [1]) | Substrate potential (human OATP1B3) | Substrate potential (human OATP1B3; [1]) | Substrate potential (human OCT2) | Substrate potential (human OCT2; [1])
1 | [2’-^14C]-6β-hydroxy-21-desacetyl-deflazacort [^14C‐6β‐OH‐21‐desDFZ] | 0.17 | < 2 fold | < 2 fold | < 2 fold | < 2 fold |  |  |  |  |  |  |  |  |  | 
2 | CC1=N[C@]2(C(=O)CO)[C@@H](C[C@H]3[C@@H]4C[C@@H](O)C5=CC(=O)C=C[C@]5(C)[C@H]4[C@@H](O)C[C@@]32C)O1 [6β‐OH‐21‐desDFZ, 6β‐Hydroxy‐21‐desacetyl deflazacort] | 0.17 at 2.5 µM | 1.08 at 2.5 µM and 20 min fold | 1.15 at 2.5 µM and 20 min fold | 1.47 at 1 µM and 20 min fold | 1.32 at 1 µM and 20 min fold | not a substrate | No | not a substrate | No | not a substrate | No | not a substrate | No | not a substrate | No

Reference: PMC7982320 (Pharmacology Research & Perspectives, 2021)
